The values that follow come from patent US6479520B1, “Method of treating a patient having precancerous lesions with phenyl pyridinone derivatives” (Cell Pathways, Inc., priority 1995, dated 2002).

Molecules are shown by their SMILES.

Consider `CCCOc1cc(OC)ccc1-c1ccc(C#N)c(=O)[nH]1` [9(a), 3-Cyano-6-(4-methoxy-2-propoxyphenyl)-2(1H)-pyridinone], for which the melting point (commonly the temperature of the solid-liquid transition) fell in the range of 183 to 183.5 °C.

With `CCCOc1cc(SC)ccc1-c1ccc(C#N)c(=O)[nH]1` [2(a), 3-Cyano-6-(4-methylthio-2-propoxyphenyl)-2(1H)-pyridinone], the melting point lay within 196 to 197 °C.
